Assay results reported in patent publication US8877748B2, “Heterocyclic fused anthraquinone derivatives, manufacturing method and pharmaceutical composition using thereof” (National Defense Medical Center, priority 2012, dated 2014).

Columns and labels:
[1] = system: EKVX; assay: NCI one-dose screening, non-small cell lung cancer EKVX; type: cell-based, human; details: EKVX
[2] = system: A549/ATCC; assay: NCI one-dose screening, non-small cell lung cancer A549/ATCC; type: cell-based, human; details: A549/ATCC
[3] = system: COLO 205; assay: NCI one-dose screening, colon cancer COLO 205; type: cell-based, human; details: COLO 205, 10 μM
[4] = system: HCC-2998; assay: NCI one-dose screening, colon cancer HCC-2998; type: cell-based, human; details: HCC-2998, 10 μM
[5] = system: HCT-15; assay: NCI one-dose screening, colon cancer HCT-15; type: cell-based, human; details: HCT-15, 10 μM
[6] = system: SF-268; assay: NCI one-dose screening, CNS cancer SF-268; type: cell-based, human; details: SF-268, 10 μM
[7] = system: SF-539; assay: NCI one-dose screening, CNS cancer SF-539; type: cell-based, human; details: SF-539, 10 μM
[8] = system: MALME-3M; assay: NCI one-dose screening, melanoma MALME-3M; type: cell-based, human; details: MALME-3M
[9] = system: UACC-62; assay: NCI one-dose screening, melanoma UACC-62; type: cell-based, human; details: UACC-62, 10 μM
[10] = system: OVCAR-4; assay: NCI one-dose screening, ovarian cancer OVCAR-4; type: cell-based, human; details: OVCAR-4, 10 μM
[11] = system: 786-O; assay: NCI one-dose screening, renal cancer 786-O; type: cell-based, human; details: 786-0, 10 μM
[12] = system: PC-3; assay: NCI one-dose screening, prostate cancer PC-3; type: cell-based, human; details: PC-3, 10 μM
[13] = system: BT-549; assay: NCI one-dose screening, breast cancer BT-549; type: cell-based, human; details: BT-549, 10 μM
[14] = system: T-47D; assay: NCI one-dose screening, breast cancer T-47D; type: cell-based, human; details: T-47D
[15] = system: human tumor cell lines; assay: NCI one-dose screening, mean, delta and range of growth percent over all cell lines tested; type: cell-based; details: for Growth Percent (10 μM), Delta: Delta over all cell lines tested; for Growth Percent (10 μM), Mean: Mean over all cell lines tested; for Growth Percent (10 μM), Range: Range over all cell lines tested
[16] = system: HOP-92; assay: NCI one-dose screening, non-small cell lung cancer HOP-92; type: cell-based, human; details: HOP-92, 10 μM

Row | SMILES | Growth Percent (10 μM) [1] [%] | Growth Percent (10 μM) [2] [%] | Growth Percent (10 μM) [3] [%] | Growth Percent (10 μM) [4] [%] | Growth Percent (10 μM) [5] [%] | Growth Percent (10 μM) [6] [%] | Growth Percent (10 μM) [7] [%] | Growth Percent (10 μM) [8] [%] | Growth Percent (10 μM) [9] [%] | Growth Percent (10 μM) [10] [%] | Growth Percent (10 μM) [11] [%] | Growth Percent (10 μM) [12] [%] | Growth Percent (10 μM) [13] [%] | Growth Percent (10 μM) [14] [%] | Growth Percent (10 μM), Delta [15] [%] | Growth Percent (10 μM), Mean [15] [%] | Growth Percent (10 μM), Range [15] [%] | Growth Percent (10 μM) [16] [%] | melting point [°C]
1 | O=C1c2ccccc2C(=O)c2c1cc(N1CCCC1)c1nsnc21 [C7, 4-(pyrrolidine-1-yl)anthra-[2,1-c][1,2,5] thiadiazol-6,11-dione] | 75.67 | 63.51 | 82.13 | 104.58 | 61.25 | 98.43 | 97.27 | 70.73 | 95.64 | 77.50 | 96.67 | 71.01 | 86.83 | 78.19 | 54.57 | 85.69 | 109.89 | – | –
2 | CN(C)CCNc1cc2c(c3nsnc13)C(=O)c1ccccc1C2=O [C8] | −25.35 | −60.09 | −99.38 | −86.18 | −60.44 | −14.54 | −82.05 | −85.22 | −47.85 | −71.27 | −14.05 | −18.35 | −99.43 | 12.90 | 49.51 | −49.52 | 112.33 | −25.30 | –
3 | CC(C)Sc1cc2c(c3nsnc13)C(=O)c1ccccc1C2=O [C18, 4-(isopropylthio)anthra[2,1-c][1,2,5] thiadiazol-6,11-dione] | −6.58 | −8.14 | 102.47 | 21.00 | 15.31 | 7.06 | −47.01 | −86.04 | −57.09 | −100.00 | 12.37 | −13.43 | 10.84 | −24.37 | 78.36 | −21.64 | 202.47 | – | 193 to 194
4 | Cc1ccc(Nc2cc3c(c4nsnc24)C(=O)c2ccccc2C3=O)cc1 [C64, 4-(p-tolylamino)anthra[2,1-c][1,2,5] thiadiazol-6,11-dione] | 82.17 | 56.25 | 100.68 | 95.82 | 32.24 | 52.27 | 70.48 | 78.41 | 67.41 | 31.44 | 74.18 | 45.73 | 76.36 | 64.48 | 48.49 | 61.35 | 96.99 | – | –
